{"source": "paper doi:10.1101/374926v1", "about": "(bioRxiv, 2018)", "key": {"[1]": {"system": "GR*-eGFP in Saos-2(GIGT) cells", "test": "Glucocorticoid-induced eGFP translocation", "format": "cell-based, human", "conditions": "1 μM, 30 min"}, "[2]": {"system": "eGFP-hGal3 in Saos-2 cells", "test": "Galectin recruitment assay for endosomal damage", "format": "cell-based, human"}, "[3]": {"system": "eGFP-hGal8 in Saos-2 cells", "test": "Galectin recruitment assay for endosomal damage", "format": "cell-based, human", "conditions": "RNAiMAX 16 μL/mL or LLOMe 1 mM, 1 h"}, "[4]": {"system": "Saos-2 cells", "test": "FCS-based Lys9^R endosomal leakage assay", "format": "cell-based, human", "conditions": "for Lys9^R delivery efficiency (DE), cytosol / Lys9^R delivery efficiency (DE), nucleus: 60 min, FCS, n > 10 cells"}, "[5]": {"test": "In vitro FCS diffusion measurement", "format": "physicochemical", "conditions": "Milli-Q water"}, "[6]": {"conditions": "2,500 cells per well in transfection medium"}}}
{"compound": "C[C@@H]1C[C@H]2[C@@H]3CCC4=CC(=O)C=C[C@]4(C)[C@@]3(F)[C@@H](O)C[C@]2(C)[C@@]1(O)C(=O)CO", "note": "[Dex, dexamethasone]", "values": [{"measurement": "translocation ratio (TR)", "setting": "[1]; [6]", "result": "3.4 ± 0.40"}]}
{"compound": "COC(=O)[C@H](CC(C)C)NC(=O)[C@@H](N)CC(C)C", "note": "[LLOMe, L-leucyl-L-leucine methyl ester]", "values": [{"measurement": "vesicular staining compared to the total cell area", "setting": "[2]; LLOMe 1 mM, 1 hour, corresponds to ERC 400.0", "result": 4, "unit": "%"}, {"measurement": "ERC value routinely obtained", "setting": "[2]; LLOMe 1 mM, 1 hour, untreated cells around 0.0", "result": "~400.0"}, {"measurement": "increase of average ERC over untreated cells, eGFP-hGal3", "setting": "[2]; RNAiMAX 16 μL/mL or LLOMe 1 mM, 1 h", "result": 147, "unit": "fold"}, {"measurement": "increase of average ERC over untreated cells, eGFP-hGal8", "setting": "[3]", "result": 68, "unit": "fold"}, {"measurement": "Lys9^R delivery efficiency (DE), cytosol", "setting": "[4]; LLOMe 0.125 mM, no agent: 3", "result": 3, "unit": "%"}, {"measurement": "Lys9^R delivery efficiency (DE), nucleus", "setting": "[4]; LLOMe 0.125 mM, no agent: 4", "result": 6, "unit": "%"}, {"measurement": "Lys9^R delivery efficiency (DE), cytosol", "setting": "[4]; LLOMe 0.25 mM", "result": 4, "unit": "%"}, {"measurement": "Lys9^R delivery efficiency (DE), nucleus", "setting": "[4]; LLOMe 0.25 mM", "result": 12, "unit": "%"}, {"measurement": "Lys9^R delivery efficiency (DE), cytosol", "setting": "[4]; LLOMe 0.5 mM", "result": 8, "unit": "%"}, {"measurement": "Lys9^R delivery efficiency (DE), nucleus", "setting": "[4]; LLOMe 0.5 mM", "result": 12, "unit": "%"}, {"measurement": "Lys9^R delivery efficiency (DE), cytosol", "setting": "[4]; LLOMe 1.0 mM", "result": 9, "unit": "%"}, {"measurement": "Lys9^R delivery efficiency (DE), nucleus", "setting": "[4]; LLOMe 1.0 mM", "result": 12, "unit": "%"}, {"measurement": "endosomal leakage of Lys9^R", "setting": "[4]; LLOMe titration up to 1 mM, 1 h", "result": "no detectable endosomal leakage"}]}
{"compound": "Ac-KKKKKKKKK-NH2 [Lys9^UL]", "values": [{"measurement": "Average τdiff in vitro at 25 °C", "setting": "[5]", "result": "0.064 ± 0.001", "unit": "ms"}, {"measurement": "Measured D at 25 °C", "setting": "[5]", "result": "206 ± 3", "unit": "μm^2 s^-1"}]}
{"compound": "K^Dex-WYSCNVCGKAFVLSRHLNRHLRVHRRAT-CONH2 [2^Dex]", "values": [{"measurement": "translocation ratio (TR)", "setting": "[1]; [6]", "result": "3.0 ± 0.090"}, {"measurement": "translocation ratio (TR)", "setting": "[1]; complete media", "result": "around 2.0"}, {"measurement": "translocation ratio (TR)", "setting": "[1]; transfection media", "result": "around 3.0"}]}
{"compound": "K^Dex–GPSQPTYPGDDAPVRDLIRFYRDLRRYLNVVTR HRY-CONH2 [1^Dex]", "values": [{"measurement": "translocation ratio (TR)", "setting": "[1]; [6]", "result": "3.0 ± 0.40"}, {"measurement": "mean translocation ratio (TR)", "setting": "[1]; cells transfected with non-targeting siRNA, non-treated 1.2 ± 0.1", "result": "2.4 ± 0.3"}, {"measurement": "translocation ratio (TR)", "setting": "[1]; complete media", "result": "around 2.0"}, {"measurement": "translocation ratio (TR)", "setting": "[1]; transfection media", "result": "around 3.0"}]}
